Data published in patent US20240199558A1, “2,4,6-TRISUBSTITUTED 1,3,5-TRIAZINES AS MODULATORS OF CX3CR1” (ASTRAZENECA AB, priority 2022, published 2024).

Tests used:
CX3CR1 [1] = target: T1, CX3CR1 (Homo sapiens (Human), UniProt P49238); experiment: hCX3CR1 [3H]-AZD8797 competitive binding assay (filter); conditions: CHO-hCX3CR1 membranes, 2 nM [3H]-AZD8797
Summary of the method: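 CHO-hCX3CR1 membranes (9 μg/well) were incubated 2 h at room temperature with 2 nM [3H]-AZD8797 and varying competitor concentrations. Buffer: 25 mM HEPES pH 7.4, 10 mM MgCl2, 1 mM CaCl2, 0.5% BSA, 1% DMSO. Bound ligand was collected by vacuum filtration, washed in ice-cold buffer with 500 mM NaCl, and counted by scintillation.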

CX3CR1 [2] = target: T1, CX3CR1; experiment: hCX3CR1 [125I]-CX3CL1 displacement binding (SPA); conditions: CHO-hCX3CR1 membranes, [125I]-CX3CL1, SPA beads
Procedure: hCX3CR1 [^125I]-CX3CL1 Displacement Binding (SPA)
CHO-hCX3CR1 membranes (3 μg per well) together with […] [^125I]-CX3CL1 (Perkin Elmer) and different concentrations of competitor compound were incubated together with 400 μg/well WGA coated PVT SPA beads (Perkin Elmer) in 50 mM HEPES (pH 7.4), 10 mM MgCl2, 1 mM EDTA and 0.1% Gelatin in a Greiner polystyrene flat-bottom 384-well plate. The plate was incubated for 20 h at room temperature before the radioactivity was measured using a MicroBeta Trilux reader (PerkinElmer). The DMSO concentration was held constant at 1%.

T1 sequence (P49238 whole entry): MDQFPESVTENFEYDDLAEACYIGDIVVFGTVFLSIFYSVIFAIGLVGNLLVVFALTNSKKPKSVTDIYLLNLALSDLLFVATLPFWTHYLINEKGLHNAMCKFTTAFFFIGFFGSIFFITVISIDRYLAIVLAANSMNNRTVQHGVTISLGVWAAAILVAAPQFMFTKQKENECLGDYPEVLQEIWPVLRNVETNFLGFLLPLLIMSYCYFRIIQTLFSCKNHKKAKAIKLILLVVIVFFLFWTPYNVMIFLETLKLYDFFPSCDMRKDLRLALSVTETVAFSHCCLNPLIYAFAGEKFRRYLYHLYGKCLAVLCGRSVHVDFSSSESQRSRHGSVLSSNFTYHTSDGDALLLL

Row | SMILES | IC50 (CX3CR1 [1]) [nM] | IC50 (CX3CR1 [2]) [nM]
1 | CCC(Cc1nc(N[C@@H](CO)CC(C)C)nc(NS(C)(=O)=O)n1)c1ccccc1F (stereo partly drawn) [Example 89, N-(4-(2-(2-Fluorophenyl)butyl)-6-(((R)-1-hydroxy-4-methylpentan-2-yl)amino)-1,3,5-triazin-2-yl)methanesulfonamide] | 250 | 987
2 | COc1ccc([C@H](C)Cc2nc(N[C@@H](CO)CC(C)C)nc(NS(C)(=O)=O)n2)c(OC)n1 (single isomer, unassigned) [Example 52, N-(4-((R*)-2-(2,6-Dimethoxypyridin-3-yl)propyl)-6-(((R)-1-hydroxy-4-methylpentan-2-yl)amino)-1,3,5-triazin-2-yl)methanesulfonamide] | 450 | 5520
3 | CC(C)C[C@H](CO)Nc1nc(C[C@H](C)c2ccccc2)nc(NS(C)(=O)=O)n1 (single isomer, unassigned) [Example 147, N-(4-(((R)-1-Hydroxy-4-methylpentan-2-yl)amino)-6-((S*)-2-phenylpropyl)-1,3,5-triazin-2-yl)methanesulfonamide] | – | > 10000
4 | COc1ncccc1[C@@H](C)Cc1nc(N[C@@H](CO)CC(C)C)nc(NS(C)(=O)=O)n1 (single isomer, unassigned) [Example 18, N-(4-(((R)-1-Hydroxy-4-methylpentan-2-yl)amino)-6-((S*)-2-(2-methoxypyridin-3-yl)propyl)-1,3,5-triazin-2-yl)methanesulfonamide] | 758 | 16700
5 | COc1ncc([C@H](C)Cc2nc(N[C@@H](CO)CC(C)C)nc(NS(C)(=O)=O)n2)cc1C (single isomer, unassigned) [Example 15, N-(4-(((R)-1-Hydroxy-4-methylpentan-2-yl)amino)-6-((R*)-2-(6-methoxy-5-methylpyridin-3-yl)propyl)-1,3,5-triazin-2-yl)methanesulfonamide] | 252 | 2990
6 | COc1ccc([C@@H](C)Cc2nc(N[C@@H](CO)CC(C)C)nc(NS(C)(=O)=O)n2)c(OC)n1 (single isomer, unassigned) [Example 53, N-(4-((S*)-2-(2,6-Dimethoxypyridin-3-yl)propyl)-6-(((R)-1-hydroxy-4-methylpentan-2-yl)amino)-1,3,5-triazin-2-yl)methanesulfonamide] | 528 | 11000
7 | COc1ncccc1[C@H](C)Cc1nc(N[C@@H](CO)CC(C)C)nc(NS(C)(=O)=O)n1 (single isomer, unassigned) [Example 17, N-(4-(((R)-1-Hydroxy-4-methylpentan-2-yl)amino)-6-((R*)-2-(2-methoxypyridin-3-yl)propyl)-1,3,5-triazin-2-yl)methanesulfonamide] | 307 | 4370
8 | COc1cc(C)c([C@H](C)Cc2nc(N[C@@H](CO)CC(C)C)nc(NS(C)(=O)=O)n2)cn1 (single isomer, unassigned) [Example 13, N-(4-(((R)-1-Hydroxy-4-methylpentan-2-yl)amino)-6-((R*)-2-(6-methoxy-4-methylpyridin-3-yl)propyl)-1,3,5-triazin-2-yl)methanesulfonamide] | 614 | 4250
9 | CC(C)C[C@H](CO)Nc1nc(C[C@H](C)c2ccc(Cl)c(Cl)c2)nc(NS(C)(=O)=O)n1 (relative stereo) [Example 1, N-(4-((R*)-2-(3,4-Dichlorophenyl)propyl)-6-(((R)-1-hydroxy-4-methylpentan-2-yl)amino)-1,3,5-triazin-2-yl)methanesulfonamide] | – | 1970
10 | COc1ccc(C(C)Cc2nc(N[C@@H](CO)CC(C)C)nc(NS(C)(=O)=O)n2)c2cccnc12 (stereo partly drawn) [Example 97, N-(4-(((R)-1-Hydroxy-4-methylpentan-2-yl)amino)-6-(2-(8-methoxyquinolin-5-yl)propyl)-1,3,5-triazin-2-yl)methanesulfonamide] | 90 | –
11 | CC(C)C[C@H](CO)Nc1nc(C[C@@H](C)c2cc(F)c(Cl)c(F)c2)nc(NS(C)(=O)=O)n1 (single isomer, unassigned) [Example 31, N-(4-((R*)-2-(4-Chloro-3,5-difluorophenyl)propyl)-6-(((R)-1-hydroxy-4-methylpentan-2-yl)amino)-1,3,5-triazin-2-yl)methanesulfonamide] | 287 | –
12 | CC(C)C[C@H](CO)Nc1nc(C[C@@H](C)c2c(F)cc(Cl)cc2F)nc(NS(C)(=O)=O)n1 (single isomer, unassigned) [Example 44, N-(4-((R*)-2-(4-Chloro-2,6-difluorophenyl)propyl)-6-(((R)-1-hydroxy-4-methylpentan-2-yl)amino)-1,3,5-triazin-2-yl)methanesulfonamide] | 173 | –

Continued by falling IC50 (CX3CR1 [1]), values first:

Row | IC50 (CX3CR1 [1]) [nM] | IC50 (CX3CR1 [2]) [nM] | SMILES
13 | 4930 | > 30000 | COc1ncc([C@@H](C)Cc2nc(N[C@@H](CO)CC(C)C)nc(NS(C)(=O)=O)n2)cc1C (single isomer, unassigned) [Example 16, N-(4-(((R)-1-Hydroxy-4-methylpentan-2-yl)amino)-6-((S*)-2-(6-methoxy-5-methylpyridin-3-yl)propyl)-1,3,5-triazin-2-yl)methanesulfonamide]
14 | 2210 | 4900 | CC(C)C[C@H](CO)Nc1nc(C[C@H](C)c2ccc(F)cc2)nc(NS(C)(=O)=O)n1 (single isomer, unassigned) [Example 80, N-(4-((S*)-2-(4-Fluorophenyl)propyl)-6-(((R)-1-hydroxy-4-methylpentan-2-yl)amino)-1,3,5-triazin-2-yl)methanesulfonamide]
15 | 1350 | > 20000 | COc1ncc([C@@H](C)Cc2nc(N[C@@H](CO)CC(C)C)nc(NS(C)(=O)=O)n2)cc1F (single isomer, unassigned) [Example 8, N-(4-((S*)-2-(5-Fluoro-6-methoxypyridin-3-yl)propyl)-6-(((R)-1-hydroxy-4-methylpentan-2-yl)amino)-1,3,5-triazin-2-yl)methanesulfonamide]
16 | 922 | > 20000 | COc1ncc([C@@H](C)Cc2nc(N[C@@H](CO)CC(C)C)nc(NS(C)(=O)=O)n2)cc1Cl (single isomer, unassigned) [Example 10, N-(4-((S*)-2-(5-Chloro-6-methoxypyridin-3-yl)propyl)-6-(((R)-1-hydroxy-4-methylpentan-2-yl)amino)-1,3,5-triazin-2-yl)methanesulfonamide]
17 | 361 | 362 | CC(C)C[C@H](CO)Nc1nc(C[C@@H](C)c2ccc(Cl)c(Cl)c2)nc(NS(C)(=O)=O)n1 (single isomer, unassigned) [Example 2, N-(4-((S*)-2-(3,4-Dichlorophenyl)propyl)-6-(((R)-1-hydroxy-4-methylpentan-2-yl)amino)-1,3,5-triazin-2-yl)methanesulfonamide]
18 | 359 | 1830 | CCOc1cc(C(C)Cc2nc(N[C@@H](CO)CC(C)C)nc(NS(C)(=O)=O)n2)ccn1 (stereo partly drawn) [Example 67, N-(4-(2-(2-Ethoxypyridin-4-yl)propyl)-6-(((R)-1-hydroxy-4-methylpentan-2-yl)amino)-1,3,5-triazin-2-yl)methanesulfonamide]
19 | 239 | 895 | CC(C)C[C@H](CO)Nc1nc(C[C@H](C)c2ccc(F)cc2F)nc(NS(C)(=O)=O)n1 (single isomer, unassigned) [Example 5, N-(4-((S*)-2-(2,4-Difluorophenyl)propyl)-6-(((R)-1-hydroxy-4-methylpentan-2-yl)amino)-1,3,5-triazin-2-yl)methanesulfonamide]
20 | 205 | > 10000 | COc1ncc([C@H](C)Cc2nc(N[C@@H](CO)CC(C)C)nc(NS(C)(=O)=O)n2)cc1Cl (single isomer, unassigned) [Example 9, N-(4-((R*)-2-(5-Chloro-6-methoxypyridin-3-yl)propyl)-6-(((R)-1-hydroxy-4-methylpentan-2-yl)amino)-1,3,5-triazin-2-yl)methanesulfonamide]
21 | 173 | 348 | CC(C)C[C@H](CO)Nc1nc(C[C@@H](C)c2ccc(Cl)cc2F)nc(NS(C)(=O)=O)n1 (single isomer, unassigned) [Example 84, N-(4-((R*)-2-(4-Chloro-2-fluorophenyl)propyl)-6-(((R)-1-hydroxy-4-methylpentan-2-yl)amino)-1,3,5-triazin-2-yl)methanesulfonamide]
22 | 124 | 448 | CC(C)C[C@H](CO)Nc1nc(C[C@H](C)c2cccc(Cl)c2F)nc(NS(C)(=O)=O)n1 (single isomer, unassigned) [Example 3, N-(4-((S*)-2-(3-Chloro-2-fluorophenyl)propyl)-6-(((R)-1-hydroxy-4-methylpentan-2-yl)amino)-1,3,5-triazin-2-yl)methanesulfonamide]
23 | 45 | – | Cc1ccc(C(C)Cc2nc(N[C@@H](CO)CC(C)C)nc(NS(C)(=O)=O)n2)cc1N (stereo partly drawn) [Example 114, N-(4-(2-(3-Amino-4-methylphenyl)propyl)-6-(((R)-1-hydroxy-4-methylpentan-2-yl)amino)-1,3,5-triazin-2-yl)methanesulfonamide]
24 | 44 | 682 | CC(C)C[C@H](CO)Nc1nc(CC(C)c2ccnc(Cl)c2)nc(NS(C)(=O)=O)n1 (stereo in doubt) [Example 26, N-(4-((R*)-2-(2-chloropyridin-4-yl)propyl)-6-(((R)-1-hydroxy-4-methylpentan-2-yl)amino)-1,3,5-triazin-2-yl)methanesulfonamide]
